Data published in patent US10473645B2, “Methods for identifying a receptor for a ligand and uses thereof” (UNIVERSITE DE GENEVE, priority 2014, dated 2019).

How the values were obtained:
[1] = tested on: Olfr983; experiment: OR transcript level by RT-qPCR after in vivo odorant exposure; set-up: species or system mouse; key to olfr983 candidate OR (RNAseq) confirmed by qPCR: The transcript downregulation of 21 out of the 26 olfactory receptor candidates obtained by RNAseq was confirmed by qPCR; false RNAseq positive candidates, namely OR candidates for which in fact mRNA was not downregulated following acetophenone exposure; conditions: for Olfr983 mRNA level relative to unexposed controls: 5% odorant, 5 hours, in vivo, RT-qPCR
Protocol: In vivo exposure to odorant: Starting 48 h before experiments, mice were habituated to pure DMSO on a cotton ball. 200 μl were pipetted directly onto the cotton and placed in the cage, replacing any cotton that was already in the cage for nest-making purposes.
On the day of the experiment, mice receiving odorants were transferred to a different room, where they were exposed to a cotton ball on which 200 μl of odorant diluted in pure DMSO were deposited. Exposures started in the morning between 8 and 10 am (that is two hours after lights were on) and mice were killed and dissected between 1 and 3 pm. […] If a number of different odorants were tested in the same experiment, a different overpressurized room would always be used for each odorant to avoid odor cross-contamination.
After odorant exposure, mice were killed by cervical dislocation and immediately decapitated. The main olfactory epithelia (MOE), were harvested in their entirety and transferred to a tube containing 600 μl of lysis buffer and β-mercaptoethanol (RNAeasy kit, Qiagen, following the manufacturer protocol) and a 0.5 cm diameter steel ball, and then put on ice. Samples were then homogenized using a FastPrep®-24 instrument (MP Biomedicals) at 6 m/s for 30 s and left on ice. RNA extraction was performed on all samples in parallel using the Qiagen RNeasy Mini® kit following the manufacturer's instructions. Two DNase treatments were performed on all samples: first using the Qiagen RNase-Free DNase Set® and then using the Life Technologies Ambion DNase I® kit. RNA samples were then aliquoted and stored at −80° C.
RNA concentrations were determined using an Amersham Ultrospec® 3100 Pro spectrophotometer, and RNA quality was evaluated with an Agilent Technologies 2100 Bioanalyzer®. […]
qPCR Ct values were analyzed using an in-house developed Microsoft Excel® macro file. […] Ct values were converted to quantities relative to the maximum for each given gene. Selected reference genes were then analyzed for variance using the geNorm algorithm. […]

[2] = tested on: Olfr171-expressing neurons; experiment: pS6 immunolabeling with OR in situ hybridization after odorant exposure; set-up: species or system mouse; conditions: 5% odorant, 60 minutes, in vivo
Protocol: (§1) In order to independently validate the identity of an acetophenone receptor obtained with the RNAseq approach, the potential colocalization following acetophenone exposure of a neuronal activity marker (the phosphorylated ribosomal protein S6 (pS6) (Knight et al., 2012, Cell, 151, 1126-1137) and specific olfactory receptors were evaluated. To this aim, in-situ hybridizations were performed on sections of olfactory tissue with probes targeting receptor mRNAs followed by immunolabeling of pS6. The probes used were directed against the transcripts of most of the ORs determined as responsive including Olfr983 transcripts (encoding a known acetophenone receptor), Olfr171 transcripts (encoding a known ethyl isobutyrate receptor), and Olfr145 transcripts, encoding a newly identified receptor by RNAseq. Before analysis, mice were exposed to either 5% acetophenone, 5% ethyl isobutyrate, or a negative control condition for 60 minutes. […] 66% (Olfr983) and 70% (Olfr145) of the neurons were positive for pS6 after acetophenone exposure, while only 11% of the neurons expressing Olfr171 were positive for pS6 after exposure to this compound.

[3] = tested on: OSNs expressing olfr1135; experiment: as above; format: in vivo, mouse; set-up: key: y: neuronal activation (i.e. pS6 signal in a fraction of neuron exceeding 15% relative to controls); no pS6 signals; conditions: 5% acetophenone, 60 minutes
Protocol: as §1

[4] = tested on: OSNs expressing olfr1350; experiment: as above; format: in vivo, mouse; set-up: key: y: neuronal activation (i.e. pS6 signal in a fraction of neuron exceeding 15% relative to controls); no pS6 signals; conditions: 5% acetophenone, 60 minutes
Protocol: as §1

[5] = tested on: OSNs expressing olfr378; experiment: as above; format: in vivo, mouse; set-up: key: y: neuronal activation (i.e. pS6 signal in a fraction of neuron exceeding 15% relative to controls); no pS6 signals; conditions: 5% acetophenone, 60 minutes
Protocol: as §1

[6] = tested on: OSNs expressing olfr490; experiment: as above; format: in vivo, mouse; set-up: key: y: neuronal activation (i.e. pS6 signal in a fraction of neuron exceeding 15% relative to controls); no pS6 signals; conditions: 5% acetophenone, 60 minutes
Protocol: as §1

[7] = tested on: OSNs expressing olfr750; experiment: as above; format: in vivo, mouse; set-up: key: y: neuronal activation (i.e. pS6 signal in a fraction of neuron exceeding 15% relative to controls); no pS6 signals; conditions: 5% acetophenone, 60 minutes
Protocol: as §1

SMILES: CC(=O)c1ccccc1 [acetophenone]
- olfr983 candidate OR (RNAseq) confirmed by qPCR ([1]; 5% acetophenone exposure): y
- Olfr983 mRNA level relative to unexposed controls [1]: decrease
- Olfr983 mRNA level relative to unexposed controls ([1]; listed as Acetophenone): downregulates
- fraction of Olfr171-expressing neurons positive for pS6 [2]: 11%
- olfr1135 ps6 positive [3]: n
- olfr1350 ps6 positive [4]: n
- olfr378 ps6 positive [5]: n
- olfr490 ps6 positive [6]: n
- olfr750 ps6 positive [7]: n
